Patent publication US4447440A, “Sulphenamides-containing lipoxygenase inhibiting agents and their use in pharmaceutical compositions” (Bayer Aktiengesellschaft, priority 1981, dated 1984)

Key:
[1] = system: lipoxygenase / cyclooxygenase; conditions: prior art; cited from earlier work
platelet lipoxygenase = molecular target: T1, platelet lipoxygenase (Homo sapiens, UniProt P18054); test: Inhibition of the platelet lipoxygenase (synthesis of HETE), metabolism of radioactively labelled arachidonic acid by washed human platelets; assay type: cell-based; conditions: in vitro
T1 construct: metabolism of radioactively labelled arachidonic acid by washed human platelets; endogenous in cells; host or cells: washed human platelets
T1 sequence (P18054 1-663): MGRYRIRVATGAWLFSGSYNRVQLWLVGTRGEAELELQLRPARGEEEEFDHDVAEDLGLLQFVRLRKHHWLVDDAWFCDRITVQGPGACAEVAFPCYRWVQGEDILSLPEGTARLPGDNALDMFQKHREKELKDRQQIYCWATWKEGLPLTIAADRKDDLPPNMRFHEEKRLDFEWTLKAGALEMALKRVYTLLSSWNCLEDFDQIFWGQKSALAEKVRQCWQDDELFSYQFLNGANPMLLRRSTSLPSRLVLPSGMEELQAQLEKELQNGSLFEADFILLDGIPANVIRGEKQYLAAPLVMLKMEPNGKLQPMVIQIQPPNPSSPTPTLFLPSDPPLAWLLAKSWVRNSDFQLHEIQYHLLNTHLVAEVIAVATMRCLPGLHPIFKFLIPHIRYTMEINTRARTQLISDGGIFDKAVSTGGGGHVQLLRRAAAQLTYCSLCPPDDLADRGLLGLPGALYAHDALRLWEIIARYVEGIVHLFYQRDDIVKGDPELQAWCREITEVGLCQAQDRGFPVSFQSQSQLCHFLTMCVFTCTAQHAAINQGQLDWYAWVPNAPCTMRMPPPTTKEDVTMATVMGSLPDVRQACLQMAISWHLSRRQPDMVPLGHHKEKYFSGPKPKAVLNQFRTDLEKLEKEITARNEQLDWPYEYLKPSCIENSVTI
Experimental: In this test method, the metabolism of radioactively labelled arachidonic acid by washed human platelets is investigated. In this in vitro test, the radioactively labelled metabolites are extracted from the reaction mixture and separated by thin layer chromatography. The autoradiogram is evaluated on the thin layer scanner. Under these test conditions, the labelled metabolites are separated from the unreacted arachidonic acid and can subsequently be quantitatively evaluated. The distribution of the radioactivity in the cyclooxygenase products, formed during metabolism, thomboxane B2 (TXB2) and 12-hydroxy-5,8,10-heptadecatrienic acid (HHT) and the lipoxygenase product 12-hydroxy-5,8,11,14-eicosatetraenoic acid (HETE) as influenced by the inhibitors, gives a measure of the inhibition of the enzymes.
The inhibition of lipoxygenase by the sulphenamides which can be used according to the invention can be measured by the inhibition of the synthesis of HETE. […] Inhibition of the platelet lipoxygenase (synthesis of HETE)

leucocytes (migration) = test: Inhibition of the migration of leucocytes, sponge soaked in active compound introduced under the dorsal skin of rats; assay type: in vivo; conditions: rat, local dose 10 mg/rat; for inhibition in vivo at 10 mg: Leucocyte, read-out: Inhibition of the migration of leucocytes (control = 0%)
From the text: The sulphenamides used according to the present invention are also active in vivo. […] Table 2 which follows summarises the activities of some illustrative sulphenamides after local administration, by introduction of a piece of sponge soaked in the active compound under the dorsal skin of rats.

Row | Minimum effective inhibitory concentration (at least 50% inhibition) (platelet lipoxygenase) | Compound | inhibition in vivo at 10 mg (leucocytes (migration)) | further results
1 | – | CCCCCC#CCC#CCC#CCC#CCCCC(=O)O [5,8,11,14-eicosatetrainoic acid] | – | activity of known inhibitors of lipoxygenase, in words [1]: either simultaneously active as inhibitors of cyclooxygenase, or only active at very high concentrations
2 | 10^-6 g/ml | Nc1ncn(Sc2ccccc2)n1 [Example 2] | 70% | –
3 | 10^-6 g/ml | Nc1ncn(Sc2ccc(Cl)cc2)n1 [Example 3] | – | –
4 | – | Cc1ccc(Sn2cnc(N)n2)cc1 [Example 4] | 61% | –
5 | – | Clc1ccc(SNc2nnc(N3CCOCC3)s2)cc1 [Example 5] | 22% | –
6 | – | c1ccc(CNSc2nnnn2-c2ccccc2)cc1 [Example 10] | 26% | –
7 | – | c1ccc(-n2nnnc2SNc2nc[nH]n2)cc1 [Example 11] | 22% | –
8 | – | CC1(C)OC(C)(C)N(Sc2ccc(Cl)cc2)C1=O [Example 15] | 47% | –
9 | – | Cc1ccc(SN2C(=O)C(C)(C)OC2(C)C)cc1 [Example 16] | 40% | –
10 | 3e-06 g/mL | O=c1n(Sc2ccccc2)c(=O)n2c(=O)n(Sc3ccccc3)c(=O)n12 [Example 18] | 41% | –
11 | – | O=C1CCCN1Sc1ccc(Cl)c(C(F)(F)F)c1 [Example 20] | 64% | –
12 | – | O=C1CCCN1Sc1cc(C(F)(F)F)ccc1Cl [Example 21] | 44% | –
13 | – | COC(=O)c1ccc(SN2CCCC2=O)cc1 [Example 22] | 64% | –
14 | 10^-6 g/ml | O=C1c2ccccc2C(=O)N1Sc1ccccc1 [Example 29] | 48% | –
15 | 3e-06 g/mL | O=C1c2ccccc2C(=O)N1Sc1ccc(Cl)cc1 [Example 30] | – | –
16 | 3e-06 g/mL | Cc1ccc(SN2C(=O)c3ccccc3C2=O)cc1 [Example 31] | 43% | –
17 | 3e-06 g/mL | CC(C)(C)c1ccc(SN2C(=O)c3ccccc3C2=O)cc1 [Example 35] | – | –
18 | – | O=C1c2ccc([N+](=O)[O-])cc2C(=O)N1Sc1ccccc1 [Example 36] | 64% | –
19 | – | O=C1c2ccc([N+](=O)[O-])cc2C(=O)N1Sc1ccc(Cl)cc1 [Example 38] | 56% | –
20 | 10^-6 g/ml | O=C1c2ccc([N+](=O)[O-])cc2C(=O)N1Sc1ccccc1 [Example 39] | – | –
21 | 3e-06 g/mL | O=C1c2ccc([N+](=O)[O-])cc2C(=O)N1Sc1ccc(Cl)cc1 [Example 40] | – | Inhibition of the migration of leucocytes (control = 0%) (leucocytes (migration)): 41%
22 | 3e-06 g/mL | O=C1c2c(Cl)c(Cl)c(Cl)c(Cl)c2C(=O)N1Sc1ccccc1 [Example 42] | – | –
23 | 3e-06 g/mL | CC(C)(C)c1ccc(SN2C(=O)c3c(Cl)c(Cl)c(Cl)c(Cl)c3C2=O)cc1 [Example 43] | – | –

Row | Minimum effective inhibitory concentration (at least 50% inhibition) (platelet lipoxygenase) | Compound | inhibition in vivo at 10 mg (leucocytes (migration)) | further results
24 | – | O=c1c2cc3c(=O)n(Sc4ccccc4)c(=O)c3cc2c(=O)n1Sc1ccccc1 [Example 45] | 40% | –
25 | – | O=C1c2cccc3cccc(c23)C(=O)N1Sc1ccccc1 [Example 47] | 21% | –
26 | 10^-6 g/ml | O=C1CCCN1Sc1ccccc1 [Example 52] | 76% | –
27 | 10^-6 g/ml | O=C1CCCN1Sc1ccc(Cl)cc1 [Example 53] | – | –
28 | 10^-6 g/ml | CC(C)(C)c1ccc(SN2CCCC2=O)cc1 [Example 54] | – | –
29 | 10^-6 g/ml | O=C1CCCCCN1Sc1ccccc1 [Example 55] | 78% | –
30 | 3e-06 g/mL | O=C1CCCCCN1Sc1ccc(Cl)cc1 [Example 56] | 86% | –
31 | 10^-5 g/ml | CC(C)(C)c1ccc(SN2CCCCCC2=O)cc1 [Example 57] | – | –
32 | – | O=C1CCCCCCCCCCN1Sc1ccccc1 [Example 58] | 78% | –
33 | 3e-06 g/mL | O=C1c2ccccc2S(=O)(=O)N1Sc1ccccc1 [Example 60] | – | –
34 | 10^-6 g/ml | O=C1c2ccccc2S(=O)(=O)N1Sc1ccc(Cl)cc1 [Example 61] | – | –
35 | 3e-06 g/mL | CC(C)(C)c1ccc(SN2C(=O)c3ccccc3S2(=O)=O)cc1 [Example 62] | – | –
36 | 3e-06 g/mL | O=C1C(=O)N(Sc2ccccc2)c2ccccc21 [Example 68] | – | –
37 | – | O=C1C(=O)N(Sc2ccc(Cl)cc2)c2ccccc21 [Example 69] | 20% | –
38 | 10^-6 g/ml | O=C1CCN(c2ccccc2)N1Sc1ccc(Cl)cc1 [Example 72] | – | –
39 | 10^-6 g/ml | CC1=NN(Sc2ccccc2)C(=O)C1 [Example 74] | 52% | –
40 | 3e-06 g/mL | Clc1ccc(Sn2cccn2)cc1 [Example 75] | – | –
41 | 3e-06 g/mL | O=c1oc2ccccc2c(=O)n1SC1CCCCC1 [Example 76] | – | –
42 | 1e-05 g/mL | c1ccc2c(c1)ncn2SC1CCCCC1 [Example 80, 1-cyclohexylthiobenzimidazole] | – | –
43 | 1e-05 g/mL | CCC(C)Sn1cnc2ccccc21 (centres unmarked) [Example 84] | – | –
44 | – | CC(Cc1ccc(O)c(O)c1)C(C)Cc1ccc(O)c(O)c1 (centres unmarked) [nordihydroguaiaretic acid] | – | activity of known inhibitors of lipoxygenase, in words [1]: either simultaneously active as inhibitors of cyclooxygenase, or only active at very high concentrations
45 | – | O=C1CCN(c2ccccc2)N1 [phenidone] | – | activity of known inhibitors of lipoxygenase, in words [1]: either simultaneously active as inhibitors of cyclooxygenase, or only active at very high concentrations

Row | Compound | Minimum effective inhibitory concentration (at least 50% inhibition) (platelet lipoxygenase) | inhibition in vivo at 10 mg (leucocytes (migration)) | further results
46 | O=C1c2ccccc2C(=O)N1SC1CCCCC1 [Example 32] | 3e-06 g/mL | 38% | –
